# Source: patent US10441588B2, “Methods and compositions for treating bacterial infection” (Curators of the University of Missouri, priority 2012, dated 2019)
# Structures can show the parent of a compound that is named as a salt. Where two headings read alike, the source gives them in different places.
# How the values were obtained:
# S. aureus = S. aureus growth inhibition, optical density, test/control; format: cell-based, Staphylococcus aureus; settings: Staphylococcus aureus, growth of bacteria test/control by optical density
# S. aureus biofilm = S. aureus biofilm inhibition, optical density, test/control; format: cell-based, Staphylococcus aureus; settings: Staphylococcus aureus, growth of biofilm test/control by optical density
# [1] = 5 μM, read-out: S. aureus Biofilm Inhibition 5 μM vs. (−) Control
# [2] = 50 μM, read-out: S. aureus Biofilm Inhibition 50 μM vs. (−) Control
Structure (SMILES),activity at 100 µM (S. aureus) [%],activity at 100 µM (S. aureus biofilm) [%],activity at 5 µM (S. aureus biofilm; [1]) [%],activity at 50 µM (S. aureus biofilm; [2]) [%],also measured
"COCCSc1nc2c(c(=O)n1Cc1ccc(-c3noc(C)n3)cc1)C(C)(C)Cc1ccccc1-2 [CCG-205387, 2-((2-Methoxyethyl)thio)-5,5-dimethyl-3-(4-(5-methyl-1,2,4-oxadiazol-3-yl)benzyl)-5,6-dihydrobenzo[h]quinazolin-4(3H)-one]",115,72.3,,,
"C=CCOc1nc(SCCOC)nc2c1C1(CCN(C(=O)CCCC)CC1)Cc1cc(OC)ccc1-2 [CCG-208863, 1-(4-(allyloxy)-8-methoxy-2-((2-methoxyethyl)thio)-6H-spiro[benzo[h]quinazoline-5,4′-piperidin]-1′-yl)pentan-1-one]",,,72.1,68.6,
C=CCn1c(SCCOC)nc2c(c1=O)C(C)(C)Cc1cc(C(=O)OC)ccc1-2 [CCG-205435],126,,,,activity at 10 µM (S. aureus biofilm): 29.3%
"CCSc1nc2c(c(=O)n1CCOC)C(C)(C)Cc1ccccc1-2 [CCG-203802, 2-(ethylthio)-3-(2-methoxyethyl)-5,5-dimethyl-5,6-dihydrobenzo[h]quinazolin-4(3H)-one]",67.7,55.7,,,
"C=CCn1c(SCC)nc2c(c1=O)C(C)(C)Cc1cc(OCCN3C(=O)c4ccccc4C3=O)ccc1-2 [CCG-206176, 2-(2-((3-allyl-2-(ethylthio)-5,5-dimethyl-4-oxo-3,4,5,6-tetrahydrobenzo[h]quinazolin-8-yl)oxy)ethyl)isoindoline-1,3-dione]",100,79.5,,,
C=CCn1c(SCCOC)nc2c(c1=O)C1(CCCCC1)Cc1ccccc1-2 [CCG-102493],72.1,66,,,
"COc1ccc2c(c1)-c1nc(SCC#N)n(CC#N)c(=O)c1C(C)(C)C2 [CCG-212012, 2-((3-(cyanomethyl)-9-methoxy-5,5-dimethyl-4-oxo-3,4,5,6-tetrahydrobenzo[h]quinazolin-2-yl)thio)acetonitrile]",,,55,27,
"C=CCn1c(SCCOC)nc2c(c1=O)C1(CCNC1)Cc1cc(OC)ccc1-2 (stereo not drawn) [CCG-208865, 3-allyl-8-methoxy-2-((2-methoxyethyl)thio)-3H-spiro[benzo[h]quinazoline-5,3′-pyrrolidine]-4(6H)-one hydrochloride]",,,,,"activity at 5 µM (S. aureus biofilm; read-out: S. aureus Biofilm Inhibition 5 μM vs. (−) Control, 5 μM): 80.3%; activity at 50 µM (S. aureus biofilm; read-out: S. aureus Biofilm Inhibition 50 μM vs. (−) Control, 50 μM): 65.2%"
C=CCn1c(SCCOC)nc2c(c1=O)CC(C)c1ccccc1-2 (stereo not drawn) [CCG-203574],73.8,46.5,,,
CCSc1nc(OCC(F)(F)F)c2c(n1)-c1cc(OC)ccc1CC2(C)C [CCG-206356],110,59.1,,,
"COc1ccc2c(c1)CC1(CCN(C(=O)OC(C)(C)C)CC1)c1c(OC)nc(SCC#N)nc1-2 [CCG-211810, tert-butyl 2-((cyanomethyl)thio)-4,8-dimethoxy-6H-spiro[benzo[h]quinazoline-5,4′-piperidine]-1′-carboxylate]",,,68.2,75,
"C=CCn1c(SCCOC)nc2c(c1=O)C1(CCN(C(=O)OC(C)(C)C)C1)Cc1cc(OC)ccc1-2 (stereo not drawn) [CCG-208864, tert-butyl 3-allyl-8-methoxy-2-((2-methoxyethyl)thio)-4-oxo-4,6-dihydro-3H-spiro[benzo[h]quinazoline-5,3′-pyrrolidine]-1′-carboxylate]",,,49.5,49.1,
"C=CCn1c(SCCOC)nc2c(c1=O)C1(CCN(C(=O)c3ccc(Cl)cc3)CC1)Cc1ccccc1-2 [CCG-206235, 3-Allyl-1′-(4-chlorobenzoyl)-2-((2-methoxyethyl)thio)-3H-spiro[benzo[h]quinazoline-5,4′-piperidin]-4(6H)-one]",106,77.6,,,
C=CCn1c(SCC(F)(F)F)nc2c(c1=O)C(C)(C)Cc1ccc(OC)cc1-2 [CCG-206352],101,47,,,activity at 10 µM (S. aureus biofilm): 60.4%
C=CCn1c(SC)nc2c(c1=O)C1(CCCCC1)Cc1ccccc1-2 [CCG-102620],95.3,76.5,,,
"C=CCn1c(SCCOC)nc2c(c1=O)C1(CCOCC1)Cc1ccccc1-2 [CCG-205453, 3-Allyl-2-((2-methoxyethyl)thio)-2′,3′,5′,6′-tetrahydro-3H-spiro[benzo[h]quinazoline-5,4′-pyran]-4(6H)-one]",102,79.6,,,
"C=CCn1c(SCCOC)nc2c(c1=O)C1(CCN(C)CC1)Cc1cc(OC)ccc1-2 [CCG-208981, 3-allyl-8-methoxy-2-((2-methoxyethyl)thio)-1′-methyl-3H-spiro[benzo[h]quinazoline-5,4′-piperidin]-4(6H)-one]",,,88.5,70.6,
C=CCn1c(SCC)nc2c(c1=O)C(C)(C)Cc1c(OCCOC)cccc1-2 [CCG-203633],76.2,54,,,
"C=CCOc1nc(SCC#N)nc2c1C(C)(C)Cc1ccc(OC)cc1-2 [CCG-212010, 2-((4-(allyloxy)-9-methoxy-5,5-dimethyl-5,6-dihydrobenzo[h]quinazolin-2-yl)thio)acetonitrile]",,,55,35,
"C=CCn1c(SCCOC)nc2c(c1=O)C1(CCN(C(=O)NCC(=O)OCC)CC1)Cc1cc(OC)ccc1-2 [CCG-211972, ethyl (3-allyl-8-methoxy-2-((2-methoxyethyl)thio)-4-oxo-4,6-dihydro-3H-spiro[benzo[h]quinazoline-5,4′-piperidine]-1′-carbonyl)glycinate]",,,125,68,
"COc1ccc2c(c1)CC1(CCN(C(=O)OC(C)(C)C)CC1)c1c(OCC#N)nc(SCC#N)nc1-2 [CCG-211812, tert-butyl 4-(cyanomethoxy)-2-((cyanomethyl)thio)-8-methoxy-6H-spiro[benzo[h]quinazoline-5,4′-piperidine]-1′-carboxylate]",,,75.2,75,
"COc1ccc2c(c1)CC1(CCN(C(=O)OC(C)(C)C)CC1)c1c-2nc(SCC#N)n(C)c1=O [CCG-211811, tert-butyl 2-((cyanomethyl)thio)-8-methoxy-3-methyl-4-oxo-4,6-dihydro-3H-spiro[benzo[h]quinazoline-5,4′-piperidine]-1′-carboxylate]",,,67.8,70.2,
"COc1ccc2c(c1)-c1nc(SCC#N)nc(OCC#N)c1C(C)(C)C2 [CCG-212011, 2-((4-(cyanomethoxy)-9-methoxy-5,5-dimethyl-5,6-dihydrobenzo[h]quinazolin-2-yl)thio)acetonitrile]",,,48,29,
C=CCn1c(SCC)nc2c(c1=O)C(C)(C)Cc1cc(OCC(=O)O)ccc1-2 [CCG-205434],,32.5,,,
"C=CCn1c(SCCOC)nc2c(c1=O)C1(CCN(C(=O)OCC)CC1)Cc1ccccc1-2 [CCG-206233, Ethyl 3-allyl-2-((2-methoxyethyl)thio)-4-oxo-4,6-dihydro-3H-spiro[benzo[h]quinazoline-5,4′-piperidine]-1′-carboxylate]",,,,59.4,
"CCSc1nc(OC)c2c(n1)-c1cc(OC)ccc1CC2(C)C [CCG-211793, 2-(ethylthio)-4,9-dimethoxy-5,5-dimethyl-5,6-dihydrobenzo[h]quinazoline]",,,122,72.2,
C=CCOc1nc(SCC)nc2c1C(C)(C)Cc1ccc(OC)cc1-2 [CCG-206358],,70,,,activity at 10 µM (S. aureus biofilm): 55.7%
C=CCn1c(SCC)nc2c(c1=O)C(C)(C)Cc1ccc(OC)cc1-2 [CCG-203625],,,,,activity at 10 µM (S. aureus biofilm): 51.3%
